Measurements from PubChem BioAssay AID248 (DTP/NCI, 2004).
Several values for one entry are separate records, joined by “and”; a condition that tells them apart may be missing. Equal entries are not always repeated. Toxic doses and inconclusive results are not listed.

Test system: L1210 leukemia ip in BDF1 mice, survival T/C
Assay: NCI In Vivo Anticancer Drug Screen. Data for tumor model L1210 Leukemia (intraperitoneal) in B6D2F1 (BDF1) mice
Settings: endpoint: mean survival time, higher = longer survival
Method in brief: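 Read-out is survival time, reported as the treated-group measurement over the vehicle-control measurement.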

[1] = dose: 50.0 mg/kg/injection, schedule: Q01DX001 (ip), vehicle: carboxymethylcellulose (CMC)
[2] = dose: 100.0 mg/kg/injection, schedule: Q01DX001 (ip), vehicle: carboxymethylcellulose (CMC)
[3] = dose: 200.0 mg/kg/injection, schedule: Q01DX001 (ip), vehicle: carboxymethylcellulose (CMC)
[4] = dose: 100.0 mg/kg/injection, schedule: Q01DX009 (ip), vehicle: Klucel (hydroxypropylcellulose) (HPC)
[5] = dose: 200.0 mg/kg/injection, schedule: Q01DX009 (ip), vehicle: Klucel (hydroxypropylcellulose) (HPC)
[6] = dose: 100.0 mg/kg/injection, schedule: Q01DX009 (ip), vehicle: saline with Tween-80
[7] = dose: 200.0 mg/kg/injection, schedule: Q01DX009 (ip), vehicle: saline with Tween-80
[8] = dose: 50.0 mg/kg/injection, schedule: Q01DX001 (ip), vehicle: saline
[9] = dose: 100.0 mg/kg/injection, schedule: Q01DX001 (ip), vehicle: saline
[10] = dose: 200.0 mg/kg/injection, schedule: Q01DX001 (ip), vehicle: saline
[11] = dose: 100.0 mg/kg/injection, schedule: Q04DX003 (ip), vehicle: Klucel (hydroxypropylcellulose) (HPC)
[12] = dose: 200.0 mg/kg/injection, schedule: Q04DX003 (ip), vehicle: Klucel (hydroxypropylcellulose) (HPC)
[13] = dose: 100.0 mg/kg/injection, schedule: Q04DX003 (ip), vehicle: saline
[14] = dose: 200.0 mg/kg/injection, schedule: Q04DX003 (ip), vehicle: saline
[15] = dose: 400.0 mg/kg/injection, schedule: Q04DX003 (ip), vehicle: saline
[16] = dose: 400.0 mg/kg/injection, schedule: Q01DX009 (ip), vehicle: saline with Tween-80
[17] = dose: 400.0 mg/kg/injection, schedule: Q01DX009 (ip), vehicle: Klucel (hydroxypropylcellulose) (HPC)

Compound: COc1cc(C=Nc2ccc(-c3csc(COc4ccccc4)n3)cc2)ccc1N(CCCl)CCCl
- T/C (dose: 3.7 mg/kg/injection, schedule: Q01DX015 (ip), vehicle: carboxymethylcellulose (CMC)): 116 % of control
- T/C (dose: 6.2 mg/kg/injection, schedule: Q01DX015 (ip), vehicle: carboxymethylcellulose (CMC)): 117 % of control
- T/C (dose: 9.3 mg/kg/injection, schedule: Q01DX015 (ip), vehicle: carboxymethylcellulose (CMC)): 119 % of control
- T/C (dose: 10.0 mg/kg/injection, schedule: Q01DX001 (ip), vehicle: carboxymethylcellulose (CMC)): 121 % of control
- T/C (dose: 15.0 mg/kg/injection, schedule: Q01DX015 (ip), vehicle: carboxymethylcellulose (CMC)): 124 % of control
- T/C (dose: 20.0 mg/kg/injection, schedule: Q01DX001 (ip), vehicle: carboxymethylcellulose (CMC)): 123 % of control
- T/C (dose: 40.0 mg/kg/injection, schedule: Q01DX001 (ip), vehicle: carboxymethylcellulose (CMC)): 156 % of control
- T/C [1]: 107 % of control
- T/C (dose: 50.0 mg/kg/injection, schedule: Q01DX015 (ip), vehicle: carboxymethylcellulose (CMC)): 96 % of control and 104 % of control and 92 % of control
- T/C (dose: 66.6 mg/kg/injection, schedule: Q01DX001 (ip), vehicle: carboxymethylcellulose (CMC)): 164 % of control
- T/C [2]: 156 % of control
- T/C [3]: 104 % of control

Compound: S=C(N/N=C/c1ccccn1)NC1CC2C=CC1C2 (stereo not given)
- T/C [4]: 100 % of control
- T/C [5]: 95 % of control

Compound: CC(=O)/C=C/c1ccco1
- T/C (dose: 12.5 mg/kg/injection, schedule: Q01DX009 (ip), vehicle: DMSO): 101 % of control
- T/C (dose: 25.0 mg/kg/injection, schedule: Q01DX009 (ip), vehicle: DMSO): 97 % of control
- T/C (dose: 25.0 mg/kg/injection, schedule: Q04DX003 (ip), vehicle: DMSO): 96 % of control
- T/C (dose: 50.0 mg/kg/injection, schedule: Q01DX009 (ip), vehicle: DMSO): 92 % of control
- T/C (dose: 50.0 mg/kg/injection, schedule: Q04DX003 (ip), vehicle: DMSO): 108 % of control
- T/C (dose: 100.0 mg/kg/injection, schedule: Q04DX003 (ip), vehicle: DMSO): 98 % of control

Compound: OCC[CH2][Sn]([c]1ccccc1)([c]1ccccc1)[c]1ccccc1
- T/C (dose: 6.25 mg/kg/injection, schedule: Q04DX002 (ip), vehicle: saline with Tween-80): 101 % of control
- T/C (dose: 12.5 mg/kg/injection, schedule: Q04DX002 (ip), vehicle: saline with Tween-80): 101 % of control
- T/C (dose: 25.0 mg/kg/injection, schedule: Q04DX002 (ip), vehicle: saline with Tween-80): 87 % of control
- T/C (dose: 50.0 mg/kg/injection, schedule: Q01DX009 (ip), vehicle: saline with Tween-80): 96 % of control
- T/C [6]: 96 % of control
- T/C [7]: 96 % of control

Compound: O=C(CCC(=O)Nc1ccc(Cl)c(Cl)c1)Nc1ccc(Cl)c(Cl)c1
- T/C (dose: 100.0 mg/kg/injection, schedule: Q04DX002 (ip), vehicle: Klucel (hydroxypropylcellulose) (HPC)): 93 % of control
- T/C (dose: 200.0 mg/kg/injection, schedule: Q04DX002 (ip), vehicle: Klucel (hydroxypropylcellulose) (HPC)): 89 % of control
- T/C (dose: 400.0 mg/kg/injection, schedule: Q04DX002 (ip), vehicle: Klucel (hydroxypropylcellulose) (HPC)): 104 % of control

Compound: O=[N+]([O-])/C(=C/c1ccccc1)c1ccccc1
- T/C [8]: 102 % of control
- T/C [9]: 108 % of control
- T/C [10]: 104 % of control

Compound: O=Nc1ccc(O)c2ncccc12
- T/C [11]: 92 % of control
- T/C [12]: 99 % of control

Compound: CCOc1cc[n+]([O-])cc1C
- T/C [1]: 102 % of control
- T/C [2]: 98 % of control

Compound: CC(C)N(C(=O)C1C2CCC(CC2)C1C(=O)N(C(C)C)C(C)C)C(C)C (stereo not given)
- T/C [13]: 100 % of control
- T/C [14]: 100 % of control
- T/C [15]: 100 % of control

Compound: CCOC(=O)c1cnc(SC)nc1Sc1ccc(Cl)cc1
- T/C [6]: 96 % of control
- T/C (dose: 100.0 mg/kg/injection, schedule: Q04DX003 (ip), vehicle: saline with Tween-80): 96 % of control
- T/C [7]: 94 % of control
- T/C (dose: 200.0 mg/kg/injection, schedule: Q04DX003 (ip), vehicle: saline with Tween-80): 96 % of control
- T/C [16]: 98 % of control
- T/C (dose: 400.0 mg/kg/injection, schedule: Q04DX003 (ip), vehicle: saline with Tween-80): 94 % of control

Compound: N#CCC1C(=O)Nc2ccccc21 (stereo not given)
- T/C [9]: 101 % of control
- T/C [10]: 98 % of control
- T/C (dose: 400.0 mg/kg/injection, schedule: Q01DX001 (ip), vehicle: saline): 101 % of control

Compound: C/C(CC(C)C)=N\NC(=O)Nc1ccc(Cl)c(Cl)c1
- T/C [6]: 100 % of control and 112 % of control
- T/C (dose: 100.0 mg/kg/injection, schedule: Q04DX002 (ip), vehicle: saline): 94 % of control and 106 % of control
- T/C [13]: 92 % of control
- T/C [7]: 101 % of control and 112 % of control
- T/C (dose: 200.0 mg/kg/injection, schedule: Q04DX002 (ip), vehicle: saline): 93 % of control and 105 % of control
- T/C [14]: 95 % of control
- T/C [16]: 101 % of control and 106 % of control
- T/C (dose: 400.0 mg/kg/injection, schedule: Q04DX002 (ip), vehicle: saline): 95 % of control and 105 % of control
- T/C [15]: 113 % of control

Compound: CCOC(=O)c1ccc(NC(=O)Oc2ccc(Cl)cc2C)cc1
- T/C [4]: 101 % of control
- T/C [5]: 92 % of control
- T/C [17]: 95 % of control

Compound: Cc1ccc(S(=O)(=O)Nc2ccccc2-c2nc3ccc([N+](=O)[O-])cc3c(=O)o2)cc1
- T/C [6]: 104 % of control
- T/C [7]: 96 % of control

Compound: CCN(CC)CC(=O)NCC(CCCN(C)C)(CCCN(C)C)c1cccc2ccccc12
- T/C (dose: 12.5 mg/kg/injection, schedule: Q01DX009 (ip), vehicle: saline): 96 % of control
- T/C (dose: 25.0 mg/kg/injection, schedule: Q01DX009 (ip), vehicle: saline): 91 % of control
- T/C (dose: 25.0 mg/kg/injection, schedule: Q04DX002 (ip), vehicle: saline): 93 % of control
- T/C (dose: 50.0 mg/kg/injection, schedule: Q01DX009 (ip), vehicle: saline): 86 % of control
- T/C (dose: 50.0 mg/kg/injection, schedule: Q04DX002 (ip), vehicle: saline): 100 % of control

Compound: CCCCC(C#N)(C(=O)OCC)C(C)(C)C (stereo not given)
- T/C (dose: 100.0 mg/kg/injection, schedule: Q01DX009 (ip), vehicle: saline): 105 % of control
- T/C [13]: 96 % of control
- T/C (dose: 200.0 mg/kg/injection, schedule: Q01DX009 (ip), vehicle: saline): 92 % of control
- T/C [14]: 97 % of control
- T/C (dose: 400.0 mg/kg/injection, schedule: Q01DX009 (ip), vehicle: saline): 101 % of control
- T/C [15]: 96 % of control

Compound: CSc1nsc(SC)c1C#N
- T/C [4]: 103 % of control
- T/C [5]: 97 % of control
- T/C [17]: 92 % of control

Compound: COc1ccc(N(CCO)CCO)cc1
- T/C [8]: 96 % of control
- T/C [9]: 102 % of control
- T/C [10]: 96 % of control

Compound: O=[N+]([O-])c1ccc(N=Nc2ccc(O)cc2)c([N+](=O)[O-])c1
- T/C [1]: 100 % of control
- T/C [2]: 106 % of control
- T/C [3]: 105 % of control

Compound: CC(=O)Nc1ccc2c(c1)Cc1cc(N=Cc3ccc4c(c3)OCO4)ccc1-2
- T/C [2]: 91 % of control
- T/C [3]: 104 % of control
- T/C (dose: 400.0 mg/kg/injection, schedule: Q01DX001 (ip), vehicle: carboxymethylcellulose (CMC)): 93 % of control

Compound: CCCCCCCCCC1(C)OCC(COC(N)=O)O1 (stereo not given)
- T/C (dose: 25.0 mg/kg/injection, schedule: Q01DX009 (ip), vehicle: Klucel (hydroxypropylcellulose) (HPC)): 104 % of control
- T/C (dose: 25.0 mg/kg/injection, schedule: Q04DX003 (ip), vehicle: Klucel (hydroxypropylcellulose) (HPC)): 98 % of control
- T/C (dose: 50.0 mg/kg/injection, schedule: Q01DX009 (ip), vehicle: Klucel (hydroxypropylcellulose) (HPC)): 93 % of control
- T/C (dose: 50.0 mg/kg/injection, schedule: Q04DX003 (ip), vehicle: Klucel (hydroxypropylcellulose) (HPC)): 96 % of control
- T/C [4]: 93 % of control
- T/C [11]: 96 % of control
- T/C [5]: 98 % of control
- T/C [12]: 98 % of control
- T/C [17]: 102 % of control
- T/C (dose: 400.0 mg/kg/injection, schedule: Q04DX003 (ip), vehicle: Klucel (hydroxypropylcellulose) (HPC)): 98 % of control
